These results are taken from US20230372309A1, “ALPHA-2 ADRENERGIC RECEPTOR ANTAGONIST” (Kyoto University, priority 2020, published 2023).

The target in assay [1] is T1, a1A adrenergic receptor (Homo sapiens, UniProt P35348).
T1 sequence (P35348 1-466): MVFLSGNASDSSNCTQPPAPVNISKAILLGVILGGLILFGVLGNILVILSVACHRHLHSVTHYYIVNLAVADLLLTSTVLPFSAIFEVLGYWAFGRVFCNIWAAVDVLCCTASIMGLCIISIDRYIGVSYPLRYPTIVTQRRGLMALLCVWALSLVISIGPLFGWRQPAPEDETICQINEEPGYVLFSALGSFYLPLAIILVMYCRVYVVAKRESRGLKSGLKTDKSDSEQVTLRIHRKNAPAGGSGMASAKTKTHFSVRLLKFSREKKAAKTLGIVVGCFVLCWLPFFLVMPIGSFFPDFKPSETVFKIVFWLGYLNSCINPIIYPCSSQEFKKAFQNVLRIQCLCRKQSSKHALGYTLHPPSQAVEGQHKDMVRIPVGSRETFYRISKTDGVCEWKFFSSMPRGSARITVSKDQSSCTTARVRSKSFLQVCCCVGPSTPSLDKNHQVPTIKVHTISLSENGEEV
In words: Binding affinity to a1 adrenergic receptors, tritium-labeled prazosin tracer. To be noted: tritium-labeled prazosin as tracer. The procedure:
(§1) [Binding Affinity to a1 Adrenergic Receptors]
(§2) The compound 1 was assayed for its inhibitory activity against a1A adrenergic receptor and a1B adrenergic receptor using prazosin with a 7-methoxy group labeled with tritium as a tracer, and binding affinity was examined. Prazosin is an antagonist that specifically binds to a1 adrenergic receptors.

Assay [2] concerns the target T2, a1B adrenergic receptor (Homo sapiens, UniProt P35368).
T2 sequence (P35368 1-520): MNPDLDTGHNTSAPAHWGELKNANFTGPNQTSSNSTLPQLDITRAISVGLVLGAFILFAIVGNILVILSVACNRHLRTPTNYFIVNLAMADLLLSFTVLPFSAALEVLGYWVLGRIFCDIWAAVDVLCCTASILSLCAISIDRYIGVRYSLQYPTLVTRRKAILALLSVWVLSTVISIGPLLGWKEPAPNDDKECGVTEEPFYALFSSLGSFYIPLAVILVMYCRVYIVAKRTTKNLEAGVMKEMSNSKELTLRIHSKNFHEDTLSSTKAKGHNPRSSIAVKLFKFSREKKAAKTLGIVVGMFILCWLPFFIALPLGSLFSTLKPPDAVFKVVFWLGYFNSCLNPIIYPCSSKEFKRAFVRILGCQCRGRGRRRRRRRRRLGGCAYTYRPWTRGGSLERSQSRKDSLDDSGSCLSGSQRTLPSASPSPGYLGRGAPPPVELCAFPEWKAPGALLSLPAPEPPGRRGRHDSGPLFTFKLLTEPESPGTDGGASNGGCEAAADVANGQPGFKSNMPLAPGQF
The description is as above. To be noted: tritium-labeled prazosin as tracer. The procedure: as §1, §2

Assay [3] addresses T3, a2B adrenergic receptor (Homo sapiens, UniProt P18089).
T3 construct: expressed in transfected cells; host or cells: HEK293
T3 sequence (P18089 1-450): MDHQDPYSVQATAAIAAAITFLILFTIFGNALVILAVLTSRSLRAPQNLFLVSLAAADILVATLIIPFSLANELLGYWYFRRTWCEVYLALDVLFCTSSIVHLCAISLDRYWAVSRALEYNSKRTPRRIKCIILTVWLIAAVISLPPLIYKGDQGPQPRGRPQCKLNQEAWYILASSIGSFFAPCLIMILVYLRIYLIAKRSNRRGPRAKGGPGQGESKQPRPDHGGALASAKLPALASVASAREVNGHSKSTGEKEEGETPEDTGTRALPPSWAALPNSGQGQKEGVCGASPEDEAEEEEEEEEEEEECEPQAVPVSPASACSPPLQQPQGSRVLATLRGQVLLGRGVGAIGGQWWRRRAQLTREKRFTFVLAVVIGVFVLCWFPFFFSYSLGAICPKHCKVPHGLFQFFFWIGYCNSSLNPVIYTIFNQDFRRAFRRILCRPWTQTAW
Briefly: TGFα shedding assay in transfected HEK293 cells, noradrenaline stimulation. The format is cell-based. To be noted: for IC50: 5 nM Noradrenaline stimulation, HEK293 cells, read-out: IC50, shedding assay, α2B. The procedure: (§3) The TGFα shedding assay is known as an assay by which a signal transduction pathway of a GPCR can be detected and measured (Patent Document 3). When the signal transduction pathway of a GPCR is activated, fusion proteins of membrane-bound alkaline phosphatase (AP) and TGFα are cleaved by TACE (TNFα converting enzyme), which is a membrane protease, and AP-TGFα is released from the cells. This released AP is measured.
(§4) The TGFα shedding assay was performed according to the method disclosed in WO2015/128894A1.
(§5) Specifically, human embryonic kidney HEK293 cells were transfected with a plasmid vector containing the cDNA of alkaline phosphatase (AP) fused TGFα, a plasmid vector containing the cDNA of a fusion protein (Gaq/i) of an N-terminal peptide fragment of Ga protein Gaq and a C-terminal peptide fragment of Ga protein Gai, and a plasmid vector containing the cDNA of a target GPCR, 24 hours later a compound was added and cultured for 30 minutes, a GPCR agonist (5 nM noradrenaline) was added, one hour later half of the culture supernatant was transferred to a new plate to prepare a supernatant plate, and the remaining plate was used as a cell plate. Ap-nitrophenyl phosphate solution was added to each plate and allowed to stand, and when 0 hours and 2 hours had passed, the absorbance at 405 nm was measured using a plate reader.
(§6) The measured value was converted to AP activity (%) according to the method described in WO2015/128894A1, and the obtained value was used as % Shedding.

Assay [4] concerns the target T4, a2C adrenergic receptor (Homo sapiens, UniProt P18825).
T4 construct: expressed in transfected cells; host or cells: HEK293
T4 sequence (P18825 1-462): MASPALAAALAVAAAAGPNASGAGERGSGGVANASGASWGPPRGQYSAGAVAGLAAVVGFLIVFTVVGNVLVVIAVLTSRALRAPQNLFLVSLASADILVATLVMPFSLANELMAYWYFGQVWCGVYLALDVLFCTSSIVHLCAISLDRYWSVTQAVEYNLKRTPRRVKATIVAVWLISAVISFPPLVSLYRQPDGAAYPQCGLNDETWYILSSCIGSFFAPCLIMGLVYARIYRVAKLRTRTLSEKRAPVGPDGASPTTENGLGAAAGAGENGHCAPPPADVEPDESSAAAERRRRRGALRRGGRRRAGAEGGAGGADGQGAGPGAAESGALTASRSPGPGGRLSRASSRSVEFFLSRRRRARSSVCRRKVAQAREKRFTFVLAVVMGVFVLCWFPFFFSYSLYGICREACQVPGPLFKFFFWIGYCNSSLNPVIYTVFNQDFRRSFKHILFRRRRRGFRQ
Described as above. The format is cell-based. The conditions noted are these: 5 nM Noradrenaline stimulation, read-out: IC50, shedding assay, α2C. As for the experimental part: as §3, §4, §5, §6

The target in assay [5] is T5, a2A adrenergic receptor (Homo sapiens, UniProt P08913).
T5 construct: expressed in transfected cells; host or cells: HEK293
T5 sequence (P08913 1-465): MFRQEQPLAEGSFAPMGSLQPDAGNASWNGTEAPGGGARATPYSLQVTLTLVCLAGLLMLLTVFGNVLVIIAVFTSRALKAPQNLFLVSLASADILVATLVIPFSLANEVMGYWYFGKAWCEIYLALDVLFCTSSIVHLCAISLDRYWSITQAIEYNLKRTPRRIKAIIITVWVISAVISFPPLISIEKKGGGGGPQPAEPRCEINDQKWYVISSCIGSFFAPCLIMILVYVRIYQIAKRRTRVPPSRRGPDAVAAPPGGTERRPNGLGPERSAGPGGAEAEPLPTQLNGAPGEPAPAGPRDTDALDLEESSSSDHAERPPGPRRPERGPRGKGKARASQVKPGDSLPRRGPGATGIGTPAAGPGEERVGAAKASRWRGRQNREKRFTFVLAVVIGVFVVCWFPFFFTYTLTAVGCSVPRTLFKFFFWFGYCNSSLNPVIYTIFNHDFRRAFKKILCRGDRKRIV
The assay is described as above. The format is cell-based. The conditions noted are these: 5 nM Noradrenaline stimulation, read-out: IC50, shedding assay, α2A. As for the experimental part:
as §3, §4, §5, §6

In assay [6] the target is T3, a2B adrenergic receptor. Briefly: Binding affinity to a2 adrenergic receptors, tritium-labeled rauwolscine tracer. The conditions noted are these: tritium-labeled rauwolscine as tracer. The procedure:
(§7) [Binding Affinity to a2 Adrenergic Receptors]
(§8) The compound 1 was assayed for its inhibitory activity against a2A adrenergic receptor and a2B adrenergic receptor using rauwolscine with a methyl group labeled with tritium as a tracer, and binding affmity was examined. RauwoLscine is an antagonist that specifically binds to a2 adrenergic receptors.

Assay [7] concerns the target T5, a2A adrenergic receptor. The description is as above. The conditions noted are these: tritium-labeled rauwolscine as tracer. The procedure:
as §7, §8

Usually IC50 stands for the concentration at which inhibition is half-maximal. Take `CCN1/C(=C/C(C)=O)Sc2ccc(F)cc21` [Compound 1, (1Z)-1-(3-ethyl-5-fluoro-2(3H)-benzothiazolylidene)-2-propanone]: the “binding affinity to the a1A adrenergic receptor” value in assay [1] was “did not exhibit binding affinity”. In assay [2], the “binding affinity to the a1B adrenergic receptor” value was “did not exhibit binding affinity”. For the same compound, the IC50 in assay [3] was 1.2 µM; in assay [4], over 30 µM; in assay [5], over 30 µM. Moreover, the “binding affinity (inhibitory activity) to a2B adrenergic receptor compared with a2A and a2C adrenergic receptor” value in assay [3] (shedding assay, Table 1, a2B versus a2A and a2C) was “higher”. For the same compound, the “binding affinity to a2B adrenergic receptor” value in assay [6] is reported as “exhibited selective binding affinity”. In assay [6] (a2B versus a2A), the “binding affinity to a2B adrenergic receptor compared with a2A adrenergic receptor” value was “higher”. Also, in assay [7], the “binding affinity to a2A adrenergic receptor” value is given as “exhibited selective binding affinity”.
In the case of `CCN1/C(=C/C(C)=O)Sc2ccc(OC)cc21` [Compound 2], the IC50 in assay [3], in assay [4] and in assay [5] was over 30 µM throughout.
`CCN1/C(=C/C(C)=O)Sc2cc(OC)ccc21` [Compound 3, (1Z)-1-(3-ethyl-6-methoxy-2(3H)-benzothiazoylidene)-2-propanone]: the IC50 in assay [3], in assay [4] and in assay [5] was over 30 µM each time.
